Assay results reported in US5326766A, “4-(2-(4-(2-pyridinyloxy)phenyl)ethoxy)quinazoline and analogues thereof” (priority 1992, dated 1994).

Experiments:
[1] = test system: Pyricularia oryzae (rice blast); experiment: whole plant or invertebrate; assay type: in vivo; details: Pyricularia oryzae, foliar, read-out: PYRIOR disease control, host rice; foliar spray; 400 ppm (+++: 100 ppm)
[2] = test system: Plasmopara viticola (downy mildew); experiment: Foliar spray fungicide test, Plasmopara viticola (downy mildew) on grape; details: for pest or weed control at 400 µg/mL: Plasmopara viticola, foliar, read-out: PLASVI disease control; for PLASVI disease control: host grape, foliar spray, 400 ppm (+++: 100 ppm)
Description: (§3) The test compounds were formulated for application by dissolving 50 mg of the compound into 1.25 ml of solvent. The solvent was prepared by mixing 50 ml of "Tween 20" (polyoxyethylene (20) sorbitan monolaurate emulsifier) with 475 ml of acetone and 475 ml of ethanol. The solvent/compound solution was diluted to 125 ml with deionized water. The resulting formulation contains 400 ppm test chemical. Lower concentrations were obtained by serial dilution with the solvent-surfactant mixture.
(§4) The formulated test compounds were applied by foliar spray.
(§5) The formulated technical compounds were sprayed on all foliar surfaces of the host plants to past run-off. Single pots of each host plant were placed on raised, revolving pedestals in a fume hood. Test solutions were sprayed on all foliar surfaces. All treatments were allowed to dry and the plants were inoculated with the appropriate pathogens within 24 hours.
(§6) The effectiveness of test compounds in controlling disease was rated using the following scale.

[3] = test system: Leptosphaeria nodorum (glume blotch); experiment: Foliar spray fungicide test, Leptosphaeria nodorum (glume blotch) on wheat; details: Parastagonospora nodorum, in Triticum aestivum, foliar, read-out: LETPNO disease control, host wheat, 400 ppm (+++: 100 ppm)
Description: as §3, §4, §5, §6

[4] = test system: Puccinia recondita tritici (leaf rust); experiment: Foliar spray fungicide test, Puccinia recondita tritici (leaf rust) on wheat; details: Puccinia recondita, in Triticum aestivum, foliar, read-out: PUCCRT disease control, host wheat, 400 ppm (+++: 100 ppm)
Description: as §3
(§7) The formulated test compounds were applied by foliar spray. The following plant pathogens and their corresponding plants were employed.
Puccinia recondita PUCCRT wheat
as §5, §6

[5] = test system: Erysiphe graminis tritici (powdery mildew); experiment: Foliar spray fungicide test, Erysiphe graminis tritici (powdery mildew) on wheat; details: Blumeria graminis, in Triticum aestivum, foliar, read-out: ERYSGT disease control, host wheat, 400 ppm (+++: 100 ppm)
Description: as §3, §7, §5, §6

[6] = test system: aster leafhopper (Macrosteles fascifrons); experiment: whole plant or invertebrate; assay type: in vivo; details: Macrosteles fascifrons, 24 h, 400 ppm, read-out: ALH percent mortality
Description: (§1) The compounds identified in Table I were tested for miticidal and insecticidal activity against eight species. The following abbreviations are used in the Table III:
ALH refers to aster leafhopper
(§2) In conducting evaluations of insecticidal activity, each test compound was formulated as a 400 ppm solution, and this solution was then diluted with water to give lesser concentrations. The 400 ppm solution was prepared by combining 19.2 mL of 0.05% solution of Tween 20 (polyoxyethylene (20) sorbitan monolaurate) in water with a solution of 8 mg of the compound in 0.8 mL of acetone/EtOH (9/1).
Activity against aster leafhopper (Macrosteles fascifrons) was tested as follows. The test was run using concentrations of 400 ppm and 50 ppm. One ounce plastic cups containing a cotton wick was sprayed with 0.4 mL of formulated material using a flat-fan nozzle. The excess moisture was allowed to evaporate. Then five to ten carbon dioxide anesthetized adult leafhoppers were added to each cup. The cups were capped and held at room temperature for 24 hours. Percent mortality was then determined.

[7] = test system: beet armyworm (Spodoptera exiqua); experiment: Activity against beet armyworm; assay type: in vivo; details: Spodoptera, 144 h, 400 ppm; 6 days; read-out: BAW activity (rated on live and dead larvae and size of live larvae)
Description: as §1
BAW refers to beet armyworm
as §2
Activity against beet armyworm (Spodoptera exiqua) was evaluated as follows. The test is run using concentrations of 400 ppm and 50 ppm. A general purpose lepidoptera artificial diet was diluted to half strength with a 5% non nutritive agar. 8 mL of this diet material was dispensed into one ounce diet cups. One hour prior to treatment, 35 to 40 eggs were dispensed onto the diet surface. The cups were then sprayed with formulated material through a flat-fan nozzle. Treated cups were air dried prior to sealing with plastic caps. The cups were held for 6 days at room temperature. Activity was then rated based on the total number of live and dead larvae, and on the size of live larvae.

[8] = test system: tobacco budworm (Heliothis virescens); experiment: Activity against tobacco budworm; assay type: in vivo; details: Heliothis virescens, 144 h, 400 ppm; 6 days; read-out: TBW activity (rated on live and dead larvae and size of live larvae)
Description: as §1
TBW refers to tobacco budworm
as §2
Activity against tobacco budworm (Heliothis virescens) was evaluated as follows. A general purpose lepidoptera artificial diet was diluted to half strength with a 5% non nutritive agar. 8 mL of this diet material was dispensed into each one ounce diet cup. One hour prior to treatment 18 to 20 eggs were dispensed onto the diet surface. The cups were then sprayed with formulated material through a flat-fan nozzle. The test was run using concentrations of 400 ppm and 50 ppm. Treated cups were air dried prior to sealing with plastic caps. The cups were held for 6 days at room temperature. Activity was then rated based on the total number of live and dead larvae, and on the size of live larvae.

[9] = test system: cotton aphid (Aphis gossypii); experiment: whole plant or invertebrate; details: 72 h, read-out: CA activity (percent based on aphids present in plants sprayed with solvent alone), 400 ppm, squash plants, three days after treatment
[10] = test system: two spotted spider mite (Tetranychus urticae); experiment: whole plant or invertebrate; details: 72 h, read-out: TSSM activity (percent based on mites present in plants sprayed with solvent alone), 400 ppm, squash plants, three days after treatment

SMILES | pest or weed control at 400 µg/mL [1] [%] | pest or weed control at 400 µg/mL [2] [%] | pest or weed control at 400 µg/mL [3] [%] | pest or weed control at 400 µg/mL [4] [%] | pest or weed control at 400 µg/mL [5] [%] | PLASVI disease control [2] | mortality at 400 ppm [6] [%] | pest or weed control at 400 ppm [7] [%] | pest or weed control at 400 ppm [8] [%] | mortality at 400 ppm [9] [%] | mortality at 400 ppm [10] [%]
FC(F)(F)c1ccc(Oc2ccc(CCOc3ncnc4ncccc34)cc2)nc1 [Compound 30] | 90 to 100 | 90 to 100 | 0 to 19 | 90 to 100 | 90 to 100 | – | – | – | – | – | –
Fc1cccc2c(OCCc3ccc(Oc4ccc(Cl)cn4)cc3)ncnc12 [Compound 17] | 90 to 100 | 90 to 100 | 20 to 89 | 90 to 100 | 90 to 100 | – | – | – | – | – | –
O=[N+]([O-])c1cccnc1Oc1ccc(CCOc2ncnc3c(F)cccc23)cc1 [Compound 8] | 20 to 89 | 90 to 100 | 20 to 89 | 20 to 89 | 90 to 100 | – | – | – | – | – | –
Fc1cccc2c(NCCc3ccc(Oc4cc(C(F)(F)F)ccn4)cc3)ncnc12 [Compound 14] | 90 to 100 | 90 to 100 | 20 to 89 | 90 to 100 | 90 to 100 | – | – | – | – | – | –
Fc1cccc2c(OCCc3ccc(Oc4ncccc4C(F)(F)F)cc3)ncnc12 [Compound 10] | 90 to 100 | 90 to 100 | 90 to 100 | 90 to 100 | 90 to 100 | – | – | – | – | – | –
Fc1cccc2c(OCCc3ccc(Oc4ncc(Cl)cn4)cc3)ccnc12 [Compound 48] | 0 to 19 | 20 to 89 | 0 to 19 | – | 20 to 89 | – | – | – | – | – | –
FC(F)(F)c1cnc(Oc2ccc(CCNc3ncnc4cccnc34)cc2)c(Cl)c1 [Compound 2] | 90 to 100 | 90 to 100 | 20 to 89 | 90 to 100 | 90 to 100 | – | – | – | – | – | –
Fc1cccc2c(NCCc3ccc(Oc4ncccc4C(F)(F)F)cc3)ncnc12 [Compound 11] | 90 to 100 | – | 90 to 100 | 90 to 100 | 90 to 100 | + ++ | – | – | – | – | –
FC(F)(F)c1ccc(Oc2ccc(CCNc3ncnc4cccnc34)cc2)nc1 [Compound 32] | 90 to 100 | 90 to 100 | 90 to 100 | 90 to 100 | 90 to 100 | – | – | – | – | – | –
Fc1cccc2c(NCCc3ccc(Oc4cccc(C(F)(F)F)n4)cc3)ccnc12 [Compound 40, 8-Fluoro-4-(2-(4-(6-(trifluoromethyl)-2-pyridinyloxy)phenyl)ethylamino)quinoline] | 20 to 89 | 90 to 100 | 20 to 89 | 90 to 100 | 90 to 100 | – | – | – | – | – | –
Clc1ccc(Oc2ccc(CCOc3ncnc4ccccc34)cc2)nn1 [Compound 49] | 0 to 19 | 90 to 100 | 0 to 19 | 20 to 89 | 20 to 89 | – | – | – | – | – | –
N#Cc1cccnc1Oc1ccc(CCOc2ncnc3cccc(F)c23)cc1 [Compound 4] | 0 to 19 | 20 to 89 | 0 to 19 | 0 to 19 | 20 to 89 | – | – | – | – | – | –
O=[N+]([O-])c1cccnc1Oc1ccc(CCOc2ncnc3cccc(F)c23)cc1 [Compound 9] | 0 to 19 | 90 to 100 | 0 to 19 | 0 to 19 | 0 to 19 | – | – | – | – | – | –
O=[N+]([O-])c1ccc(Oc2ccc(CCNc3ncnc4c(F)cccc34)cc2)nc1 [Compound 24] | 20 to 89 | 90 to 100 | 20 to 89 | 20 to 89 | 0 to 19 | – | – | – | – | – | –
FC(F)(F)c1ccnc(Oc2ccc(CCOc3ncnc4ccccc34)cc2)c1 [Compound 13] | 20 to 89 | 90 to 100 | 90 to 100 | 90 to 100 | 90 to 100 | – | 100 | 100 | 100 | 100 | 100
Fc1cccc2c(OCCc3ccc(Oc4cccc(C(F)(F)F)n4)cc3)ncnc12 [Compound 36] | 90 to 100 | 90 to 100 | 20 to 89 | 90 to 100 | 90 to 100 | – | – | – | – | – | –
Fc1cccc2c(NCCc3ccc(Oc4cccc(C(F)(F)F)n4)cc3)ncnc12 [Compound 37] | 20 to 89 | 90 to 100 | 90 to 100 | 90 to 100 | 90 to 100 | – | – | – | – | – | –
Clc1cnc(Oc2ccc(CCOc3ncnc4ccccc34)cc2)nc1 [Compound 47] | 20 to 89 | 20 to 89 | 0 to 19 | – | 90 to 100 | – | – | – | – | – | –
N#Cc1cccnc1Oc1ccc(CCOc2ncnc3c(F)cccc23)cc1 [Compound 3] | 20 to 89 | 90 to 100 | 20 to 89 | 20 to 89 | 20 to 89 | – | – | – | – | – | –
Fc1cccc2c(OCCc3ccc(Oc4cccc(OCC(F)(F)F)n4)cc3)ncnc12 [Compound 33] | 20 to 89 | 90 to 100 | 0 to 19 | 90 to 100 | 90 to 100 | – | – | – | – | – | –
Brc1cnc(Oc2ccc(CCOc3ncnc4ccccc34)cc2)nc1 [Compound 46] | 0 to 19 | 0 to 19 | 20 to 89 | 20 to 89 | 20 to 89 | – | – | – | – | – | –
FC(F)(F)c1ccc(Oc2ccc(CCNc3ncnc4ncccc34)cc2)nc1 [Compound 31] | 20 to 89 | 90 to 100 | 20 to 89 | 90 to 100 | 20 to 89 | – | – | – | – | – | –
Fc1cccc2c(OCCc3ccc(Oc4ncc(Cl)cc4Cl)cc3)ncnc12 [Compound 41] | 90 to 100 | – | 20 to 89 | 90 to 100 | 90 to 100 | ++ + | 100 | 100 | 100 | 100 | 100
